Marks after values point to notes of the source that are not given here.
Legend:
Assay type in all cases: in vivo
[1] = system: Erysiphe graminis f. sp. tritici; assay: Test A: wheat powdery mildew, preventive spray on wheat seedlings, visual disease rating; conditions: 100 = 100% disease control; for pest or weed control at 200 ppm: Blumeria graminis, 192 h
Outline: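 Preventive test: seedlings inoculated with Erysiphe spores one day after run-off spraying at 200 ppm (or 40/50 ppm) in acetone/water plus surfactant. Kept 8 days at 20° C; visual rating as % disease control versus untreated (100 = full control).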

[2] = system: Puccinia recondita f sp. tritici; assay: Test B: wheat leaf rust, preventive spray on wheat seedlings, visual disease rating; conditions: 100 = 100% disease control; for pest or weed control at 200 ppm: 192 h
Outline: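 Preventive spray to run-off on seedlings, one day before spore inoculation; 24 h in saturated atmosphere at 20° C, then 7 days in a 20° C growth chamber before visual rating (100 = full control, 0 = none, relative to controls). Standard rate 200 ppm, equal to 800 g/ha, some at 40 or 50 ppm; compounds in acetone/water with 250 ppm surfactant.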

Septoria tritici = assay: Test C: wheat leaf blotch, preventive spray on wheat seedlings, visual disease rating; conditions: 100 = 100% disease control; for pest or weed control at 200 ppm: Zymoseptoria tritici, 504 h
Outline: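 Preventive run-off spray on seedlings at 200 ppm (equal to 800 g/ha), some at 40 or 50 ppm, in acetone/water 50/50 plus 250 ppm Trem® 014. Spore inoculation one day later; 24° C. saturated for 48 h, 20° C. chamber 19 days. Disease scored visually as % control relative to controls.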

Septoria nodorum = assay: Test D: wheat glume blotch, preventive spray on wheat seedlings, visual disease rating; conditions: 100 = 100% disease control; for pest or weed control at 200 ppm: Parastagonospora nodorum, 216 h
Outline: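 Disease control (0 = none, 100 = full, relative to controls) was scored visually on wheat seedlings 7 days after a 48 h saturated-humidity incubation at 20° C following Septoria nodorum inoculation. Inoculation came one day after a run-off spray at 200 ppm (some 40 or 50 ppm) in acetone/water plus surfactant.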

Botrytis cinerea = assay: Test E: tomato botrytis, preventive spray on tomato seedlings, visual disease rating; conditions: 100 = 100% disease control; for pest or weed control at 200 ppm: Botrytis cinerea, 120 h
Excerpt: General protocol for preparing test suspensions for Tests A-E: the test compounds were first dissolved in acetone in an amount equal to 11% of the final volume and then suspended at the desired concentration (in ppm) in acetone and purified water (50/50 mix by volume) containing 250 ppm of the surfactant Trem® 014 (polyhydric alcohol esters). The resulting test suspensions were then used in Tests A-E. Spraying a 200 ppm test suspension to the point of run-off on the test plants was the equivalent of a rate of 800 g/ha.
The test suspension was sprayed to the point of run-off on tomato seedlings. The following day the seedlings were inoculated with a spore suspension of Botrytis cinerea (the causal agent of tomato botrytis) and incubated in saturated atmosphere at 20° C. for 48 h, and then moved to a growth chamber at 27° C. for 3 additional days, after which time disease ratings were visually made.
Results for Tests A-E are given in Table A. In the Table, a rating of 100 indicates 100% disease control and a rating of 0 indicates no disease control (relative to the controls). A dash (-) indicates no test results. All results are for 200 ppm except where followed by an “*”, which indicates 40 ppm or “**”, which indicates 50 ppm.

Row | Compound | Test A disease control rating ([1]; 40 ppm (*)) | Test B disease control rating ([2]; 40 ppm (*)) | Test C disease control rating (Septoria tritici; 40 ppm (*)) | Test D disease control rating (Septoria nodorum; 40 ppm (*)) | Test E disease control rating (Botrytis cinerea; 40 ppm (*)) | Test A disease control rating ([1]; 200 ppm) [%] | Test B disease control rating ([2]; 200 ppm) [%] | Test C disease control rating (Septoria tritici; 200 ppm) [%] | Test D disease control rating (Septoria nodorum; 200 ppm) [%] | Test E disease control rating (Botrytis cinerea; 200 ppm) [%] | also measured
1 | COC(=O)NCc1cc(-n2ncc(-c3ccc(F)cc3Cl)n2)ccc1C [Cmpd 87] | 98* % | 100* % | 88* % | 100* % | 61* % |  |  |  |  |  | 
2 | COC(=O)NCc1cc(-c2ccn(-c3ccc(SC)cc3OC)n2)ccc1C [Cmpd 15] |  |  |  |  |  | 96 | 100 | 77 | 100 | 64 | 
3 | COC(=O)NCc1cc(-c2ccn(-c3ccc(OC)cc3C#N)n2)ccc1C [Cmpd 21] |  |  |  |  |  | 96 | 100 | 98 | 100 | 66 | 
4 | COC(=O)NCc1cc(-c2ccn(-c3ccc(Br)cc3Br)n2)ccc1C [Cmpd 62] | 100* % | 100* % | 97* % | 100* % | 100* % |  |  |  |  |  | 
5 | COC(=O)NCc1cc(-n2ccc(-c3ccc(Cl)nc3C)n2)ccc1C [Cmpd 44] | 98* % | 100* % | 92* % | 100* % | 0* % |  |  |  |  |  | 
6 | COC(=O)NCc1cc(-n2ncc(-c3ccc(OC)cc3OC)[n+]2[O-])ccc1C [Compound 4] |  |  |  |  |  |  |  |  |  |  | pest or weed control at 200 ppm ([1]; 200 ppm): 99%; pest or weed control at 200 ppm ([2]; 200 ppm): 100%; pest or weed control at 200 ppm (Septoria tritici; 200 ppm): 99%; pest or weed control at 200 ppm (Septoria nodorum; 200 ppm): 100%; pest or weed control at 200 ppm (Botrytis cinerea; 200 ppm): 69%
7 | COC(=O)NCc1cc(-n2ccc(-c3ccc(Cl)cc3O)n2)ccc1C [Cmpd 71] |  |  |  |  |  | 90 | 99 | 51 | 100 | 8 | 
8 | COC(=O)NCc1cc(-n2ccc(-c3ccc(C)cc3F)n2)ccc1C [Cmpd 42] | 100* % | 100* % | 99* % | 100* % | 65* % |  |  |  |  |  | 
9 | COC(=O)NCc1cc(-c2ccn(-c3ccc(F)cc3OC)n2)ccc1C [Cmpd 27] |  |  |  |  |  | 100 | 100 | 100 | 100 | 54 | 
10 | COC(=O)NCc1cc(-c2ccn(-c3ccc(C)cc3OC)n2)ccc1C [Cmpd 29] |  |  |  |  |  | 99 | 100 | 100 | 100 | 63 | 
11 | COC(=O)NCc1cc(-c2ccn(-c3ccc(Br)cc3C#N)n2)ccc1C [Cmpd 111] |  |  |  |  |  | 94 | 100 | 93 | 100 | 0 | 
12 | methyl N-[[5-[3-(2,4-dimethoxyphenyl)-1H-pyrazol-1-yl]-2-methylphenyl]methyl]carbamate [Compound 23] |  |  |  |  |  | 99 | 100 | 100 | 100 | 56 | 
13 | C#CCOc1cc(OC)ccc1-c1ccn(-c2ccc(C)c(CNC(=O)OC)c2)n1 [Cmpd 51] |  |  |  |  |  | 0 | 100 | 88 | 100 | 0 | 
14 | COC(=O)NCc1cc(-n2ncc(-c3ccc(C)cc3OC)n2)ccc1C [Cmpd 7] |  |  |  |  |  | 100 | 100 | 100 | 100 | 26 | 
15 | CCOc1cc(Cl)ccc1-c1ccn(-c2ccc(C)c(CNC(=O)OC)c2)n1 [Cmpd 77] | 100* % | 100* % | 99* % | 100* % | 0* % |  |  |  |  |  | 
16 | COC(=O)NCc1cc(-n2ncc(-c3ccc(I)cc3OC)[n+]2[O-])ccc1C [Compound 81] |  |  |  |  |  |  |  |  |  |  | pest or weed control at 200 ppm ([1]; 200 ppm): 99%; pest or weed control at 200 ppm ([2]; 200 ppm): 100%; pest or weed control at 200 ppm (Septoria tritici; 200 ppm): 98%; pest or weed control at 200 ppm (Septoria nodorum; 200 ppm): 100%; pest or weed control at 200 ppm (Botrytis cinerea; 200 ppm): 67%
17 | COC(=O)NCc1cc(-c2ccn(-c3ccc(OC)cc3OCC#N)n2)ccc1C [Cmpd 32] |  |  |  |  |  | 94 | 100 | 100 | 100 | 66 | 
18 | COC(=O)NCc1cc(-n2ccc(-c3ccc(OC)cc3OCC#N)n2)ccc1C [Cmpd 53] |  |  |  |  |  | 100 | 100 | 97 | 100 | 0 | 
19 | COC(=O)NCc1cc(-n2ncc(-c3ccc(Cl)cc3F)n2)ccc1C [Cmpd 50] | 100* % | 100* % | 99* % | 100* % | 77* % |  |  |  |  |  | 
20 | COC(=O)NCc1cc(-n2ccc(-c3ccc(Br)cc3F)n2)ccc1C [Cmpd 56] | 100* % | 100* % | 98* % | 100* % | 56* % |  |  |  |  |  | 
21 | COC(=O)NCc1cc(-n2ccc(-c3ccc(OC)cc3Cl)n2)ccc1C [Cmpd 13] |  |  |  |  |  | 100 | 100 | 100 | 100 | 99 | 
22 | COC(=O)NCc1cc(-c2ccn(-c3ccc(OC)cc3[N+](=O)[O-])n2)ccc1C [Cmpd 22] |  |  |  |  |  | 0 | 100 | 100 | 100 | 85 | 
23 | C#CCOc1cc(Cl)ccc1-c1ccn(-c2ccc(C)c(CNC(=O)OC)c2)n1 [Cmpd 108] |  |  |  |  |  | 99 | 100 | 95 | 100 | 8 | 
24 | COC(=O)NCc1cc(-c2ccn(-c3ccc(N)cc3Cl)n2)ccc1C [Cmpd 90] |  |  |  |  |  | 0 | 98 | 100 | 100 | 97 | 
25 | COC(=O)NCc1cc(-c2ccn(-c3ccc(OC)cc3SC)n2)ccc1C [Cmpd 16] |  |  |  |  |  | 97 | 100 | 85 | 100 | 97 | 
26 | COC(=O)NCc1cc(-n2ccc(-c3ccc(F)cc3F)n2)ccc1C [Cmpd 30] |  |  |  |  |  | 100 | 100 | 100 | 100 | 0 | 
27 | COC(=O)NCc1cc(-n2ccc(-c3ccc(C)nc3Cl)n2)ccc1C [Cmpd 43] | 98* % | 100* % | 87* % | 100* % | 62* % |  |  |  |  |  | 
28 | COC(=O)NCc1cc(-c2ccn(-c3ccc(Cl)cc3Br)n2)ccc1C [Cmpd 63] | 100* % | 100* % | 96* % | 100* % | 99* % |  |  |  |  |  | 
29 | COC(=O)NCc1cc(-c2ccn(-c3ccc(Cl)cc3C#N)n2)ccc1C [Cmpd 52] | 97* % | 100* % | 88* % | 100* % | 0* % |  |  |  |  |  | 
